Assay results taken from publication PMC10041525, “New Dual Inhibitors of Bacterial Topoisomerases with Broad-Spectrum Antibacterial Activity and In Vivo Efficacy against Vancomycin-Intermediate Staphylococcus aureus” (Journal of Medicinal Chemistry, 2023).
Converted amounts (≈) assume the structure as drawn. “And” between values parts separate entries of the source, which are not always exact repeats. Equal entries are not always repeated. Where two headings read alike, the source gives them in different places.

Experiments:
K. pneumoniae ATCC 10031 = test: MIC broth microdilution (CLSI); format: cell-based
Method in brief: (§1)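 Using standard CLSI methodology, triplicate wells seeded at 5 × 10^4 cells in 100 μL cation-adjusted MHBII are incubated 18 h at 37 °C. The MIC corresponds to the drug concentration inhibiting culture growth as judged by OD600.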

E. faecium ATCC 700221 = test: MIC broth microdilution (CLSI); format: cell-based; conditions: Enterococcus faecium, ATCC700221
P. aeruginosa ATCC 27853 = test: MIC broth microdilution (CLSI); format: cell-based; conditions: Pseudomonas aeruginosa, ATCC27853
Method in brief: as §1

[1] = tested on: S. aureus (MRSA) ATCC 43300; test: MIC broth microdilution (CLSI); format: cell-based
Method in brief: as §1

E. coli ATCC 25922 = test: MIC broth microdilution (CLSI); format: cell-based; conditions: Escherichia coli, ATCC25922
Method in brief: as §1

A. baumannii ATCC 17978 = test: MIC broth microdilution (CLSI); format: cell-based; conditions: Acinetobacter baumannii, ATCC17978
Method in brief: (§2)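 Cation-adjusted Mueller Hinton broth 2 microdilution, 5 × 10^4 cells per well in 100 μL, three parallel replicates, plates bagged to limit evaporation; growth read as OD600 after incubation.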

S. aureus ATCC 29213 = test: MIC broth microdilution (CLSI); format: cell-based; conditions: Staphylococcus aureus, ATCC29213
Method in brief: as §2

physchem = format: physicochemical
Description: For the PBS, 2.38 g of disodium hydrogen phosphate dodecahydrate, 0.19 g of potassium dihydrogen phosphate, and 8.0 g of sodium chloride were added to distilled water (900 mL), and the solution was mixed overnight. […] Samples were prepared by weighing the exact mass of solid compounds (about 1 mg), and then, the appropriate volume of PBS was added to reach the final concentration of ∼1 mg/mL. […] The supernatant was diluted 3× with a 1:1 mixture of 0.1% TFA in water and acetonitrile and analyzed by HPLC. For the 7-point calibration curves, concentrated stock solutions of the compounds were prepared at concentrations of 10 and 0.5 mM in DMSO, which were diluted with a 1:1 mixture of 0.1% TFA in water and acetonitrile to the desired final concentrations and analyzed by HPLC. Results are given in μM as an average value of two independent experiments. For details on calibration curves, concentrations, analytical method, and HPLC method, see the Supporting Information.
Thermodynamic solubility assay
To determine thermodynamic solubility of compounds in PBS, calibration curves for the assayed compounds were prepared using seven concentrations. First, DMSO stock solutions of compounds at 10 mM and 0.5 mM concentration were prepared and then diluted (0.1% TFA in […]
Quality control (QC) samples were diluted from stock solutions with a 1:1 mixture of 0.1% TFA in water and acetonitrile to final concentrations of 60 µM, 20 µM, and 2 µM (6 µM, 2 µM, and 0.2 µM for 7f or 0.6 µM, 0.2 µM, and 0.02 µM for 7g).
Analytical reversed-phase UHPLC analyses were performed on Thermo Scientific Dionex UltiMate 3000 modular system (Thermo Fisher Scientific Inc., MA, USA). Waters Acquity UPLC® HSS C18 SB column (2.1 × 50 mm, 1.8 μm; Waters, Milford, MA, USA) was used at T […]
Mobile phase consisted of 0.1% trifluoroacetic acid in ultrapure water (solvent A) and acetonitrile […]
The obtained data was processed in Chromeleon CDS software (Thermo Fisher Scientific Inc., […]
Analytical method was tested for accuracy, precision and linear rang. Accuracy was […]
(or 2 or 0.2) µM and 60 (or 6 or 0.6) µM) to their true values and expressed in (%). Values were […]
Method repeatability was determined by calculating the RSD from the separately prepared and analysed quality control samples (n = 3). […] Linearity of the […]
method (1 (or 0.1 or 0.01) µM to 100 (or 10 or 1) µM) was evaluated from the 7-point calibration […]
Solubility was determined in two independent experiments and results were calculated in […]

[2] = Klebsiella pneumoniae, ATCC10031, read-out: MIC
[3] = Staphylococcus aureus; read-out: MIC
[4] = Staphylococcus aureus; read-out: MIC [µg/mL](S. aureus MRSA ATCC4330)
[5] = read-out: MIC [µg/mL] (A. baumannii ATCC 17978)
[6] = read-out: MIC [µg/mL](S. aureus ATCC 29213)
[7] = phosphate-buffered saline (PBS), pH 7.4, PBS pH 7.4, read-out: thermodynamic solubility, Experiment 1
[8] = phosphate-buffered saline (PBS), pH 7.4, thermodynamic solubility (pH = 7.4), PBS, 37 °C, 24 h, mean of two
[9] = phosphate-buffered saline (PBS), pH 7.4, PBS pH 7.4, read-out: thermodynamic solubility, Experiment 2

Compound | MIC (K. pneumoniae ATCC 10031; [2]) [µg/mL] | MIC (E. faecium ATCC 700221; read-out: MIC) [µg/mL] | MIC (P. aeruginosa ATCC 27853; read-out: MIC) [µg/mL] | MIC [1, 3] [µg/mL] | MIC [1, 4] [µg/mL] | MIC (E. coli ATCC 25922; read-out: MIC) [µg/mL] | MIC (A. baumannii ATCC 17978; read-out: MIC) [µg/mL] | MIC (A. baumannii ATCC 17978; [5]) [µg/mL] | MIC (S. aureus ATCC 29213; read-out: MIC) [µg/mL] | MIC (S. aureus ATCC 29213; [6]) [µg/mL] | solubility thermodynamic at 24 h (physchem; [7]) [µM] | solubility thermodynamic at 24 h (physchem; [8]) [µM] | solubility thermodynamic at 48 h (physchem; [8]) [µM] | thermodynamic solubility (pH = 7.4) (physchem; PBS, 37 °C, 24 h, mean of two) | solubility thermodynamic at 24 h (physchem; [9]) [µM] | MIC (K. pneumoniae ATCC 10031) [µg/mL] | further results
Cc1[nH]c(C(=O)Nc2nc3c(N4[C@@H]5CC[C@H]4COC5)cc(C(=O)O)cc3s2)c(Cl)c1Cl [7h, 4-((1R,5S)-3-Oxa-8-azabicyclo[3.2.1]octan-8-yl)-2-(3,4-dichloro-5-methyl-1H-pyrrole-2-carboxamido)benzo[d]thiazole-6-carboxylic Acid] | 2 | < 0.0312 | 4 | < 0.0312 | < 0.0312 | 4 | 2 | 2 | < 0.0312 | < 0.0312 | – | – | – | – | – | – | solubility thermodynamic at 24 h (physchem; pH 7.4, thermodynamic solubility (pH = 7.4)): 3.8 µM (≈ 1.83 µg/mL); solubility thermodynamic at 24 h (physchem; pH 7.4, thermodynamic solubility, Experiment 1): 3.83 µM (≈ 1.84 µg/mL); solubility thermodynamic at 24 h (physchem; pH 7.4, thermodynamic solubility, Experiment 2): 3.8 µM (≈ 1.83 µg/mL)
Cc1[nH]c(C(=O)Nc2nc3c(N4CCOC(C(F)(F)F)C4)cc(C(=O)O)cc3s2)c(Cl)c1Cl (centres unmarked) [7i, 2-(3,4-Dichloro-5-methyl-1H-pyrrole-2-carboxamido)-4-(2-(trifluoromethyl)morpholino)benzo[d]thiazole-6-carboxylic Acid] | – | – | – | – | – | – | – | – | – | – | 10.7 (≈ 5.57 µg/mL) | 10.7 (≈ 5.6 µg/mL) | 11 (≈ 5.76 µg/mL) | – | – | – | MIC (K. pneumoniae ATCC 10031; Klebsiella pneumoniae, ATCC10031): 4 µg/mL; MIC (E. faecium ATCC 700221): < 0.0312 µg/mL; MIC (P. aeruginosa ATCC 27853): 4 µg/mL; MIC ([1]; Staphylococcus aureus): < 0.0312 µg/mL; MIC ([1]; Staphylococcus aureus, read-out: MIC [µg/mL](S. aureus MRSA ATCC4330)): < 0.0312 µg/mL; MIC (E. coli ATCC 25922): 16 µg/mL; MIC (A. baumannii ATCC 17978): 4 µg/mL; MIC (S. aureus ATCC 29213): < 0.0312 µg/mL
COCC1CCCN1c1cc(C(=O)O)cc2sc(NC(=O)c3[nH]c(C)c(Cl)c3Cl)nc12 (centres unmarked) [7n, 2-(3,4-Dichloro-5-methyl-1H-pyrrole-2-carboxamido)-4-(2-(methoxymethyl)pyrrolidin-1-yl)benzo[d]thiazole-6-carboxylic Acid] | 8 | < 0.0312 | 8 | 0.0625 | 0.0625 | 8 | 8 | 8 | 0.0625 | 0.0625 | 11 (≈ 5.31 µg/mL) | 11.2 (≈ 5.41 µg/mL) | – | 11.18 µM | 11.4 (≈ 5.49 µg/mL) | – | –
COC[C@@H]1CCCN1c1cc(C(=O)O)cc2sc(NC(=O)c3[nH]c(C)c(Cl)c3Cl)nc12 [7o, (S)-2-(3,4-Dichloro-5-methyl-1H-pyrrole-2-carboxamido)-4-(2-(methoxymethyl)pyrrolidin-1-yl)benzo[d]thiazole-6-carboxylic Acid] | 16 | < 0.0312 | 16 | 0.0625 | 0.0625 | 16 | 16 | 16 | 0.0625 | 0.0625 | 10.6 (≈ 5.12 µg/mL) | 11 (≈ 5.32 µg/mL) | – | 10.98 µM | 11.4 (≈ 5.5 µg/mL) | – | –
Cc1[nH]c(C(=O)Nc2nc3c(N4CCC(O)CC4)cc(C(=O)O)cc3s2)c(Cl)c1Cl [7p, 2-(3,4-Dichloro-5-methyl-1H-pyrrole-2-carboxamido)-4-(4-hydroxypiperidin-1-yl)benzo[d]thiazole-6-carboxylic Acid] | 4 | < 0.0312 | > 64 | 4 | 4 | > 64 | > 64 | > 64 | 4 | 4 | 279 (≈ 131 µg/mL) | 184 (≈ 86.4 µg/mL) | – | 183.7 µM and 183.67 µM | 88.3 (≈ 41.4 µg/mL) | 4 | –
Cc1[nH]c(C(=O)Nc2nc3c(N4CCOCC4)cc(C(=O)O)cc3s2)cc1Cl [16a, 2-(4-Chloro-5-methyl-1H-pyrrole-2-carboxamido)-4-morpholinobenzo[d]thiazole-6-carboxylic Acid] | 2 | 1 | 64 | 2 | 2 | > 64 | > 64 | > 64 | 8 | 8 | 134 (≈ 56.3 µg/mL) | 138 (≈ 57.9 µg/mL) | 137 (≈ 57.7 µg/mL) | 137.58 µM | 141 (≈ 59.6 µg/mL) | 2 | –
